The text below walks through data of patent US9718790B2, “Triazine derivative and pharmaceutical composition having an analgesic activity comprising the same” (SHIONOGI & CO., LTD., priority 2010, dated 2017).

The assay concerns the target human P2X3 receptor (Homo sapiens (Human), UniProt P56373). Description: Evaluation of human P2X3 receptor inhibitory activity (Fluo-3 calcium fluorescence, FDSS 3000, ATP stimulation).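 Note: stimulus was 50 nM ATP with fluorescence followed for 3 min, and the response per well was peak post-ATP fluorescence divided by the reading at measurement start.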 It is filed as cell-based. Conditions: human P2X3 receptor, Test Example 1.

human P2X3 receptor, sequence (P56373 whole entry): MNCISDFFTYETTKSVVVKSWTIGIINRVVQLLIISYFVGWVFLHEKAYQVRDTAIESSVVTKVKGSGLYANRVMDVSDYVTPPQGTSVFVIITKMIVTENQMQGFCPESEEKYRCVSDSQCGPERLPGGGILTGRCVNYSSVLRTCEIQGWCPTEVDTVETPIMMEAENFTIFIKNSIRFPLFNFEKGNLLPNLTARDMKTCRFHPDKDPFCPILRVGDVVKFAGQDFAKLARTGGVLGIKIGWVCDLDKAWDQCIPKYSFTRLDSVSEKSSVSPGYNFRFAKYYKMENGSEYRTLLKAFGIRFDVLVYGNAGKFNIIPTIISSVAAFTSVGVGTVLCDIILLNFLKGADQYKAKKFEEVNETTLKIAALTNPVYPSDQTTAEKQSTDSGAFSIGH

As for `CCOC(=O)Cn1c(=O)[nH]/c(=N\c2ccc(Oc3nccs3)cc2)n(Cc2ccc(Cl)cc2)c1=O` [Compound I-2618], the IC50 is 7 nM.

On to `CCOC(=O)Cn1c(=O)[nH]/c(=N\c2ccc(Oc3ncc(C)s3)cc2)n(Cc2ccc(Cl)cc2)c1=O` [Compound I-2619], for which the 50% inhibitory concentration (IC50) worked out at 6 nM.

As for `CCn1c(=O)[nH]/c(=N\c2ccc(Oc3ccc(C(N)=O)cc3)nc2)n(Cc2ccc(Cl)cc2)c1=O` [Compound I-2620], the IC50 was 110 nM.

On to `CCn1c(=O)[nH]/c(=N\c2ccc(Oc3ccc(C(=O)O)cc3)nc2)n(Cc2ccc(Cl)cc2)c1=O` [Compound I-2621], for which the IC50 was found to be 265 nM.

As for `CCn1c(=O)[nH]/c(=N\c2ccc(Oc3ccc(NCC(=O)O)nc3)cc2)n(Cc2ccc(Cl)cc2)c1=O` [Compound I-2622], the IC50 came out at 5 nM.

For the compound `O=C(O)Cn1c(=O)[nH]/c(=N\c2ccc(Oc3nccs3)cc2)n(Cc2ccc(Cl)cc2)c1=O` [Compound I-2623], the IC50 turned out to be 506 nM.

In the case of `Cc1cnc(Oc2ccc(/N=c3\[nH]c(=O)n(CC(=O)O)c(=O)n3Cc3ccc(Cl)cc3)cc2)s1` [Compound I-2624], the IC50 worked out at 368 nM.

In the case of `CCn1c(=O)[nH]/c(=N\c2ccc(Oc3ccc(NCC(N)=O)nc3)cc2)n(Cc2ccc(Cl)cc2)c1=O` [Compound I-2625], the IC50 came out at 3 nM.

As to `CCn1c(=O)[nH]/c(=N\c2ccc(Oc3ccc(NCC(=O)NC)nc3)cc2)n(Cc2ccc(Cl)cc2)c1=O` [Compound I-2626], the IC50 came out at 5 nM.

As to `CCOC(=O)Cn1c(=O)[nH]/c(=N\c2ccc(Oc3ccon3)cc2)n(Cc2ccc(Cl)cc2)c1=O` [Compound I-2627], the IC50 is 7 nM.

Take `CCOC(=O)Cn1c(=O)[nH]/c(=N\c2ccc(Oc3ncns3)cc2)n(Cc2ccc(Cl)cc2)c1=O` [Compound I-2628]: the IC50 was found to be 4 nM.

Consider `CCOC(=O)Cn1c(=O)[nH]/c(=N\c2ccc(Oc3cnsn3)cc2)n(Cc2ccc(Cl)cc2)c1=O` [Compound I-2629], for which the IC50 is 6 nM.

For the compound `CC1(Cn2c(=O)[nH]/c(=N\c3ccc(Oc4ccon4)cc3)n(Cc3ccc(Cl)cc3)c2=O)COC(C)(C)OC1` [Compound I-2630], the IC50 is 3 nM.

For the compound `CCn1c(=O)[nH]/c(=N\c2ccc([S+]([O-])c3ccc(C(=O)O)cc3)cc2)n(Cc2ccc(Cl)cc2)c1=O` (stereo not drawn) [Compound I-2631], the IC50 amounted to 475 nM.

With `COC(=O)CCn1c(=O)[nH]/c(=N\c2ccc(Oc3cccc(C#N)n3)cc2)n(Cc2ccc(C)cc2)c1=O` [Compound I-2633], the IC50 is 2 nM.

For `Cc1ccc(Cn2c(=O)n(CCC(=O)O)c(=O)[nH]/c2=N\c2ccc(Oc3cccc(C#N)n3)cc2)cc1` [Compound I-2634], the IC50 was determined as 11 nM.

On to `Cc1ccc(Cn2c(=O)n(CCC(=O)O)c(=O)[nH]/c2=N\c2ccc(Oc3ccc(C#N)cn3)cc2)cc1` [Compound I-2635], for which the IC50 was determined as 8 nM.

Consider `COC(=O)CCn1c(=O)[nH]/c(=N\c2ccc(Oc3ccc(C#N)cn3)cc2)n(Cc2ccc(C)cc2)c1=O` [Compound I-2636], for which the IC50 came to 2 nM.

In the case of `CCn1c(=O)[nH]/c(=N\c2cccc(Oc3nccs3)c2)n(Cc2ccc(Cl)cc2)c1=O` [Compound I-2637], the IC50 is 177 nM.

`CCn1c(=O)[nH]/c(=N\c2ccc(Oc3cncc(C)n3)cc2)n(Cc2ccc(Cl)cc2)c1=O` [Compound I-2638]: the IC50 came out at 15 nM.

On to `CCn1c(=O)[nH]/c(=N\c2ccc(Oc3cccc(CO)n3)cc2)n(Cc2ccc(Cl)cc2)c1=O` [Compound I-2639], for which the IC50 was found to be 26 nM.

On to `Cc1ccc(Cn2c(=O)n(CCCO)c(=O)[nH]/c2=N\c2ccc(Oc3cccc(C#N)n3)cc2)cc1` [Compound I-2640], for which the IC50 turned out to be 2 nM.

On to `COc1cccc(Oc2ccc(/N=c3\[nH]c(=O)n(CC(CO)CO)c(=O)n3Cc3ccc(Cl)cc3)cc2)n1` [Compound I-2641], for which the IC50 stood at 12 nM.

As to `CCn1c(=O)[nH]/c(=N\c2ccc(Oc3cnccn3)cc2)n(Cc2ccc(Cl)cc2)c1=O` [Compound I-2642], the IC50 was found to be 11 nM.

`O=C(O)Cn1c(=O)[nH]/c(=N\c2ccc(Oc3cnsn3)cc2)n(Cc2ccc(Cl)cc2)c1=O` [Compound I-2643]: the IC50 was determined as 491 nM.

Consider `NC(=O)Cn1c(=O)[nH]/c(=N\c2ccc(Oc3nccs3)cc2)n(Cc2ccc(Cl)cc2)c1=O` [Compound I-2644], for which the IC50 stood at 17 nM.

As for `CNC(=O)Cn1c(=O)[nH]/c(=N\c2ccc(Oc3nccs3)cc2)n(Cc2ccc(Cl)cc2)c1=O` [Compound I-2645], the IC50 was 18 nM.

For `O=C(Cn1c(=O)[nH]/c(=N\c2ccc(Oc3nccs3)cc2)n(Cc2ccc(Cl)cc2)c1=O)NCCO` [Compound I-2646], the IC50 is 8 nM.

With `Cc1cnc(Oc2ccc(/N=c3\[nH]c(=O)n(CC(N)=O)c(=O)n3Cc3ccc(Cl)cc3)cc2)s1` [Compound I-2647], the IC50 turned out to be 16 nM.

Turning to `CNC(=O)Cn1c(=O)[nH]/c(=N\c2ccc(Oc3ncc(C)s3)cc2)n(Cc2ccc(Cl)cc2)c1=O` [Compound I-2648], the IC50 turned out to be 14 nM.

Turning to `Cc1cnc(Oc2ccc(/N=c3\[nH]c(=O)n(CC(=O)NCCO)c(=O)n3Cc3ccc(Cl)cc3)cc2)s1` [Compound I-2649], the IC50 was found to be 6 nM.

Regarding `COC(=O)CCn1c(=O)[nH]/c(=N\c2ccc(Oc3cccc(F)n3)cc2)n(Cc2ccc(Cl)cc2)c1=O` [Compound I-2650], the IC50 was 3 nM.

Consider `COC(=O)CCn1c(=O)[nH]/c(=N\c2ccc(Oc3nc(C)ns3)cc2)n(Cc2ccc(Cl)cc2)c1=O` [Compound I-2651], for which the IC50 stood at 2 nM.

Regarding `COC(=O)CCn1c(=O)[nH]/c(=N\c2ccc(Oc3ncns3)cc2)n(Cc2ccc(Cl)cc2)c1=O` [Compound I-2652], the IC50 amounted to 3 nM.

For the compound `O=C(O)CCn1c(=O)[nH]/c(=N\c2ccc(Oc3cccc(F)n3)cc2)n(Cc2ccc(Cl)cc2)c1=O` [Compound I-2653], the IC50 amounted to 9 nM.

Regarding `NC(=O)CCn1c(=O)[nH]/c(=N\c2ccc(Oc3cccc(F)n3)cc2)n(Cc2ccc(Cl)cc2)c1=O` [Compound I-2654], the IC50 worked out at 9 nM.

As for `CNC(=O)CCn1c(=O)[nH]/c(=N\c2ccc(Oc3cccc(F)n3)cc2)n(Cc2ccc(Cl)cc2)c1=O` [Compound I-2655], the IC50 stood at 5 nM.

Consider `CNC(=O)Nc1cc(Oc2ccc(/N=c3\[nH]c(=O)n(C)c(=O)n3Cc3ccc(Cl)cc3)cc2)ccn1` [Compound I-2656], for which the IC50 amounted to 6 nM.

Turning to `CCOC(=O)Cn1c(=O)[nH]/c(=N\c2ccc(Oc3ncccn3)cc2)n(Cc2ccc(Cl)cc2)c1=O` [Compound I-2657], the IC50 amounted to 7 nM.

As for `CCOC(=O)Cn1c(=O)[nH]/c(=N\c2ccc(Oc3cccnn3)cc2)n(Cc2ccc(Cl)cc2)c1=O` [Compound I-2658], the IC50 worked out at 5 nM.

As for `O=C(O)Cn1c(=O)[nH]/c(=N\c2ccc(Oc3ncns3)cc2)n(Cc2ccc(Cl)cc2)c1=O` [Compound I-2659], the IC50 was determined as 277 nM.

Consider `COC(=O)CCn1c(=O)[nH]/c(=N\c2ccc(Oc3cc(C#N)ccn3)cc2)n(Cc2ccc(C)cc2)c1=O` [Compound I-2660], for which the IC50 was determined as 3 nM.

`Cc1ccc(Cn2c(=O)n(CCC(=O)O)c(=O)[nH]/c2=N\c2ccc(Oc3cc(C#N)ccn3)cc2)cc1` [Compound I-2661]: the half-maximal inhibitory concentration (IC50) amounted to 15 nM.

Consider `O=C(O)Cn1c(=O)[nH]/c(=N\c2ccc(Oc3cccnn3)cc2)n(Cc2ccc(Cl)cc2)c1=O` [Compound I-2663], for which the IC50 was determined as 330 nM.

In the case of `CCOC(=O)Cn1c(=O)[nH]/c(=N\c2ccc(Oc3ccnnc3)cc2)n(Cc2ccc(Cl)cc2)c1=O` [Compound I-2664], the IC50 came to 3 nM.
